Patent publication US20050276838A1, “Composition and method for viral inhibition” (priority 2003, published 2005)
Read-outs that look alike come from different tables or passages of the source.

What was measured:
[1] = test system: Human Rotavirus strain Wa; experiment: Virus Inhibition Assay: MTT viability of MA-104 cells infected with Rotavirus in the presence of test compound; type: cell-based; details: for Fate of MA-104 cells treated with virus and compound (MTT metabolism assay): in the presence of virus, Table 2; for MA-104 Cell Viability After Exposure to Test Compound with Rotavirus, (+) Virus: percent of control without virus or compound added, MTT after three days, five wells, compound concentration not given; for MA-104 Infection with Lactulose (Mean OD): MTT absorbance 570 nm, 3 days, mean ± sd, triplicate
Description: (§1) MA-104 cells of epithelial morphology were obtained from American Type Culture Collection and were originally derived from Rhesus monkey embryonic kidney. The cells were cultured at 37° C. in a humidified incubator and in an atmosphere of 5% CO2, in Minimal Essential Medium with Earle's balanced salt solution (2 mM glutamine, 1 mM sodium pyruvate, 0.1 mM non-essential amino acids and 1.5 g/L sodium bicarbonate) supplemented with 10% fetal bovine serum from Hyclone, Logan, Utah. The cells were passaged twice a week at a split ratio of 1:4.
Human Rotavirus strain Wa was obtained from the American Type Culture Collection. A virus stock was diluted 1:5 in media, aliquoted to 0.2 mL per vial and stored at approximately −80° C. The human Rotavirus strain, Wa (TC adapted) (Catalog No. VR-2018), originally isolated from a diarrheic stool from a human patient (Wyatt et al., Science 207: 189-191, 1980; U.S. Pat. No. 4,341,870), is Serotype 1 (G1) for VP7.
(§2) MTT Viability Assays were conducted in a Promega CellTiter 96® Non-Radioactive Cell Kit (Cat # G400) obtained from Promega, Madison, Wis. and used according to manufacturer's instructions.
(§3) Test compounds were prepared by dissolving each compound at 20-μg/mL final concentration in incomplete MA-104 media (Minimal Essential Medium with Earle's balanced salt solution). The compounds were sterilized by filtration through a 0.45-micron filter. The filter-sterilized stock was stored frozen at less than −20° C.
(§4) Virus Inhibition Assay: Virus strain Wa (1:2 dilution from stock) was activated in the presence of 5 μg/mL trypsin and incubated with 1, 10 or 100 μg/mL test compound in serum-free medium at 37° C. for 30 minutes. The activated virus was then diluted 1:5 in serum-free medium containing test compound at the same concentration (to bring the trypsin concentration to 1 μg/mL), added to MA-104 cells, and serially diluted on microtiter plates (5-fold series). The diluent contained 1 μg/mL trypsin and the indicated amount of test compound. After the virus was adsorbed at 37° C. for 1 hour, the virus innoculum was removed, and the media was replaced with serum-free medium containing 1 μg/mL trypsin and the indicated amount of test compound. Cultures were incubated at 37° C. for 3 days, and then cell viability was assessed with the Promega MTT assay following manufacturer's instructions. Each plate contained a dilution series of virus not treated with test compound and each plate contained cells exposed to test compound without virus. All samples were tested in triplicate. Absorbance at 570 nm was determined on a SpectraMax microplate reader (Molecular Devices) equipped with SoftMax Pro (v 3.1.2) data analysis software. The mean absorbance of triplicate determinations, the standard deviation, and the % CV (standard deviation/mean* 100) were calculated. The Q test was used to remove outliers (Anderson, Robert L. 1987 in Practical Statistics for Analytical Chemists, page 31-33, Table 7, Appendix D). Data were fit to a 4-parameter curve using SoftMax Pro software. The curve equation is y=((A−D)/(1+(x/C)^B))[…] which defines a sigmoid shaped curve; A is the lower asymptote as X approaches zero; D is the upper plateau as X approaches infinity; B is the slope in the linear portion of the curve; and C is the ED50.
(§5) Test compound and activated Rotavirus were diluted in serum free medium and added to five wells of MA-104 cells. Another 5 wells on the same microtiter plate were exposed to test compound in serum free medium containing trypsin. After three days incubation, cell viability was assessed with the MTT metabolism assay. Data are expressed as percent of control without virus or compound added.

MA-104 cells = type: cell-based, Rhesus monkey
Description: as §1, §2, §3, §4, §5

[2] = test system: Human Rotavirus strain Wa; details: previous results referred to in the text; cited from earlier work

## Sialyllactose
[1]
  Fate of MA-104 cells treated with virus and compound (MTT metabolism assay): significant cell kill due to virus infection
  MA-104 Cell Viability After Exposure to Test Compound with Rotavirus, (+) Virus: 17%
MA-104 cells
  MA-104 Cell Viability After Exposure to Test Compound without Rotavirus, (−) Virus: 100%

## kappa-carageenen [Kappa Carageenen]
[1]
  Fate of MA-104 cells treated with virus and compound (MTT metabolism assay): remained viable
  MA-104 Cell Viability After Exposure to Test Compound with Rotavirus, (+) Virus: 119%
MA-104 cells
  MA-104 Cell Viability After Exposure to Test Compound without Rotavirus, (−) Virus: 112%
[2]
  Inhibition of Rotavirus according to previous results / previous data: inhibits Rotavirus infection

## galactooligosaccharide
MA-104 cells
  MA-104 Cell Viability After Exposure to Test Compound without Rotavirus, (−) Virus: 116%

## OC[C@H]1O[C@@H](O[C@@H]2[C@@H](CO)O[C@](O)(CO)[C@H]2O)[C@H](O)[C@@H](O)[C@H]1O [Lactulose, 4-O-β-D-galactopyranosil-D-fructofuranose]
[1]; Lactulose 1 μg/mL, virus (diln)-1 10
  MA-104 Infection with Lactulose (Mean OD): 0.072 ± 0.007
[1]; Lactulose 1 μg/mL, virus (diln)-1 50
  MA-104 Infection with Lactulose (Mean OD): 0.132 ± 0.010
[1]; Lactulose 1 μg/mL, virus (diln)-1 250
  MA-104 Infection with Lactulose (Mean OD): 0.428 ± 0.092
[1]; Lactulose 1 μg/mL, virus (diln)-1 1250
  MA-104 Infection with Lactulose (Mean OD): 0.756 ± 0.036
[1]; Lactulose 1 μg/mL, virus (diln)-1 6250
  MA-104 Infection with Lactulose (Mean OD): 0.743 ± 0.064
[1]; Lactulose 1 μg/mL, virus (diln)-1 31250
  MA-104 Infection with Lactulose (Mean OD): 0.782 ± 0.049
[1]; Lactulose 1 μg/mL, virus (diln)-1 156250
  MA-104 Infection with Lactulose (Mean OD): 0.804 ± 0.031
[1]; Lactulose 10 μg/mL, virus (diln)-1 10
  MA-104 Infection with Lactulose (Mean OD): 0.087 ± 0.002
[1]; Lactulose 10 μg/mL, virus (diln)-1 50
  MA-104 Infection with Lactulose (Mean OD): 0.315 ± 0.168
[1]; Lactulose 10 μg/mL, virus (diln)-1 250
  MA-104 Infection with Lactulose (Mean OD): 0.541 ± 0.330
[1]; Lactulose 10 μg/mL, virus (diln)-1 1250
  MA-104 Infection with Lactulose (Mean OD): 0.869 ± 0.088
[1]; Lactulose 10 μg/mL, virus (diln)-1 6250
  MA-104 Infection with Lactulose (Mean OD): 0.808 ± 0.085
[1]; Lactulose 10 μg/mL, virus (diln)-1 31250
  MA-104 Infection with Lactulose (Mean OD): 0.820 ± 0.082
[1]; Lactulose 10 μg/mL, virus (diln)-1 156250
  MA-104 Infection with Lactulose (Mean OD): 0.844 ± 0.030
[1]; Lactulose 100 μg/mL, virus (diln)-1 10
  MA-104 Infection with Lactulose (Mean OD): 0.133 ± 0.045
[1]; Lactulose 100 μg/mL, virus (diln)-1 50
  MA-104 Infection with Lactulose (Mean OD): 0.849 ± 0.061
[1]; Lactulose 100 μg/mL, virus (diln)-1 250
  MA-104 Infection with Lactulose (Mean OD): 0.906 ± 0.081
[1]; Lactulose 100 μg/mL, virus (diln)-1 1250
  MA-104 Infection with Lactulose (Mean OD): 0.971 ± 0.060
[1]; Lactulose 100 μg/mL, virus (diln)-1 6250
  MA-104 Infection with Lactulose (Mean OD): 1.012 ± 0.153
[1]; Lactulose 100 μg/mL, virus (diln)-1 31250
  MA-104 Infection with Lactulose (Mean OD): 0.951 ± 0.038
[1]; Lactulose 100 μg/mL, virus (diln)-1 156250
  MA-104 Infection with Lactulose (Mean OD): 0.942 ± 0.040
[1]; MA-104 cells infected with Rotavirus, lactulose 1, 10, 100 μg/mL
  Protection of MA-104 cells from virus killing: protected MA-104 cells from virus killing in a dose dependent manner
[1]
  Fate of MA-104 cells treated with virus and compound (MTT metabolism assay): remained viable
  MA-104 Cell Viability After Exposure to Test Compound with Rotavirus, (+) Virus: 119%
MA-104 cells; Rhesus monkey, 3 days
  MA-104 Cell Viability After Exposure to Test Compound without Rotavirus, (−) Virus: 134%
MA-104 cells; Rhesus monkey, 3 days, 1 μg/mL
  MA-104 cells, no virus (Mean OD): 0.372 ± 0.093
MA-104 cells; Rhesus monkey, 3 days, 10 μg/mL
  MA-104 cells, no virus (Mean OD): 0.419 ± 0.070
MA-104 cells; Rhesus monkey, 3 days, 100 μg/mL
  MA-104 cells, no virus (Mean OD): 0.612 ± 0.192

## arabinogalactan
[1]
  Fate of MA-104 cells treated with virus and compound (MTT metabolism assay): significant cell kill due to virus infection
  MA-104 Cell Viability After Exposure to Test Compound with Rotavirus, (+) Virus: 19%
MA-104 cells
  MA-104 Cell Viability After Exposure to Test Compound without Rotavirus, (−) Virus: 102%
